Reference: PMC5739597, “Discovery and evaluation of triple inhibitors of VEGFR-2, TIE-2 and EphB4 as anti-angiogenic and anti-cancer agents” (Oncotarget, 2017)
Where “and” joins values, the source holds several entries; their conditions need not be identical. Equal entries are not always repeated.

Assays:
TIE-2 = TIE-2 (Homo sapiens, UniProt Q02763); assay: ADP-Glo in vitro RTK inhibition assay, TIE-2; assay type: biochemical; details: ATP 50 μM
Method: In order to validate the direct effect of title compounds on VEGFR-2, Tie-2, and EphB4 kinases, we performed in vitro assay using the ADP-Glo Kinase Assay Kit (Promega, Wisconsin, USA).
The kinase assay was performed in a reaction mixture of final volume of 10 μL. […] The plate was incubated at 30°C for 1 h. After the plate was cooled at room temperature for 5 min, 5 μL of ADP-Glo reagent was added into each well to stop the reaction and consume the remaining […] within 40 min. At the end, 10 μL of kinase detection reagent was added into the well and incubated for 30 min to produce a luminescence signal. […] The assay plate was incubated at 30°C for 4 h. After the plate was cooled at room temperature for 5 min, 5 μL of ADP-Glo reagent was added into each well to stop the reaction and consume the remaining […] within 1 h. At the end, 10 μL of kinase detection reagent was added into each well and incubated for 30 min to produce a luminescence signal. The luminescence was read by VICTOR-X multi-label plate reader.

B-Raf = B-Raf (Homo sapiens, UniProt P15056); assay: Kinase-Glo Plus RTK selectivity assay, B-Raf; assay type: biochemical; details: 10 μM ATP
Method: A 50 μL reaction mixture contains 40 mM Tris, pH 7.4, 10 mM MgCl2, 0.1 mg/ml BSA, 1 mM DTT, 10 μM ATP, kinase and substrate (0.2 mg/mL Poly(Glu, Tyr)/10 μM ATP). The test compounds were diluted in 10% DMSO and 5 μL of the dilution was added to a 50 μL reaction so that the final concentration of DMSO is 1% in all of reactions. The assay was performed using Kinase-Glo Plus luminescence kinase assay kit. It measures kinase activity by quantitating the amount of ATP remaining in solution following a kinase reaction. The luminescent signal from the assay is correlated with the amount of ATP present and is inversely correlated with the amount of kinase activity. The IC50 values were calculated using nonlinear regression with normalized dose−response fit using Prism GraphPad software.

[1] = system: human hepatic cancer cell lines (7721); assay: Anti-proliferative MTT assay, 7721; assay type: cell-based; details: 48 h
Method: (§1) These RTKs play critical roles in the proliferation of various cancers. Therefore, RTKs inhibition generally translate well into anti-proliferation activity.
(§2) Exponentially growing cells were harvested and plated in 96-well plates at a concentration of 1×10^4 cells/well per well, and then were incubated at 37°C for 24 h. […] Subsequently, 22 μL fresh MTT (5 mg/mL) was added to each well and incubated at 37°C for 4 h. […] DMSO was added to each well after supernatant was discarded. Absorbance values were determined by a microplate reader (Bio-Rad Instruments) at 490 nm. The IC50 values were calculated according to inhibition ratios.

[2] = system: human breast cancer cell lines (MCF-7); assay: Anti-proliferative MTT assay, MCF-7; assay type: cell-based; details: MCF7, 48 h
Method: as §1, §2

[3] = system: human lung cancer cell (A549); assay: Anti-proliferative MTT assay, A549; assay type: cell-based; details: 48 h
Method: as §1, §2

[4] = system: human colon carcinoma cell line (LOVO); assay: Anti-proliferative MTT assay, LOVO; assay type: cell-based; details: 48 h
Method: as §1, §2

[5] = system: normal human liver cells (QSG7701); assay: Cytotoxicity on normal cells, QSG7701; assay type: cell-based; details: MTT, 48 h, read-out: Anti-proliferative activity IC50, QSG7701 (normal cells)
Method: (§3) In order to determine the anti-angiogenic effect of these multi-target inhibitors, we evaluated their effect on HECs (EA.hy926) viability using cell counting kit-8 (CCK-8) method.
as §1, §2

[6] = system: human embryonic kidney 293 (HEK293); assay: Cytotoxicity on normal cells, HEK293; assay type: cell-based; details: MTT, 48 h, read-out: Anti-proliferative activity IC50, HEK293 (normal cells)
Method: as §3, §1, §2

VEGFR-2 [7] = target: VEGFR-2 (Homo sapiens, UniProt P35968); assay: VEGFR-2/cell membrane chromatography (CMC) affinity evaluation; assay type: binding
Method: In previous studies, artificial cultures highly expressing VEGFR-2 on HEK293 cell lines were constructed. […] Chromatographic conditions: 10 mm×2.0 mm; flow rate0.6 mL/min; column temperature 37°C; mobile phase 5 mM PBS, pH 7.4; detection wavelength 270 nm.
The VEGFR-2 cell membrane stationary phase was prepared as previous reported. Aqueous ammonium acetate buffer solution (pH 7.4, 5 mM) was pumped at a flow rate of 0.2 mL/min as the mobile phase after VEGFR-2/CMC column was loaded onto the chromatography system at the temperature of 37°C. […] The mobile phase was 5.0 mM phosphate burred saline with a 0.6 mL/min flow rate at a column temperature of 37°C. The detected wavelength was 270 nm. The test compound was injected into the VEGFR-2/CMC column and their retention characteristics were identified to evaluate their affinity with VEGFR-2.

VEGFR-2 [8] = assay: Western blot of VEGFR-2 level and phosphorylation in EA.hy926 cells; assay type: cell-based, human
Method: The expression and phosphorylation of VEGFR-2 in EA.hy926 cells were assessed using western blot analysis with various antibodies. […] Cell lysates containing equal amounts of protein were separated by SDS polyacrylamide gel electrophoresis and transferred to polyvinylidene difluoride membranes. After being blocked in 5% nonfat milk in Tris-buffered saline with 0.1% Tween 20, pH 7.6, the membranes were incubated with the appropriate primary antibodies at 4°C overnight and then exposed to secondary antibodies for 2 h at room temperature. Immunoreactive proteins were visualized using the enhanced chemiluminescence system from Pierce Chemical.

MCF-7 xenograft = assay: In vivo MCF-7 xenograft mice model; details: ig; for Final body weight / Tumor growth inhibition / Final tumor weight: 21 days; for Final tumor weight: control 0.848±0.5; for Initial body weight: before treatment
Method: Six-week old female BALB/c mice were purchased from Shanghai Laboratory Animal center of the Chinese Academy of Sciences and housed under aseptic and ventilated condition. The mice were inoculated by subcutaneous injection with MCF-7 cancer cells suspended in 5% saline. Tumor volume and weight were measured on alternate days. Body weights were monitored as an indicator of toxicity. […] Treatment started from the next day and continued for 21 days. All mice were killed at the end of the experiment, and subcutaneous tumors were removed and weighted.

VEGFR-2 (Homo sapiens, UniProt P35968), sequence (P35968 20-1356): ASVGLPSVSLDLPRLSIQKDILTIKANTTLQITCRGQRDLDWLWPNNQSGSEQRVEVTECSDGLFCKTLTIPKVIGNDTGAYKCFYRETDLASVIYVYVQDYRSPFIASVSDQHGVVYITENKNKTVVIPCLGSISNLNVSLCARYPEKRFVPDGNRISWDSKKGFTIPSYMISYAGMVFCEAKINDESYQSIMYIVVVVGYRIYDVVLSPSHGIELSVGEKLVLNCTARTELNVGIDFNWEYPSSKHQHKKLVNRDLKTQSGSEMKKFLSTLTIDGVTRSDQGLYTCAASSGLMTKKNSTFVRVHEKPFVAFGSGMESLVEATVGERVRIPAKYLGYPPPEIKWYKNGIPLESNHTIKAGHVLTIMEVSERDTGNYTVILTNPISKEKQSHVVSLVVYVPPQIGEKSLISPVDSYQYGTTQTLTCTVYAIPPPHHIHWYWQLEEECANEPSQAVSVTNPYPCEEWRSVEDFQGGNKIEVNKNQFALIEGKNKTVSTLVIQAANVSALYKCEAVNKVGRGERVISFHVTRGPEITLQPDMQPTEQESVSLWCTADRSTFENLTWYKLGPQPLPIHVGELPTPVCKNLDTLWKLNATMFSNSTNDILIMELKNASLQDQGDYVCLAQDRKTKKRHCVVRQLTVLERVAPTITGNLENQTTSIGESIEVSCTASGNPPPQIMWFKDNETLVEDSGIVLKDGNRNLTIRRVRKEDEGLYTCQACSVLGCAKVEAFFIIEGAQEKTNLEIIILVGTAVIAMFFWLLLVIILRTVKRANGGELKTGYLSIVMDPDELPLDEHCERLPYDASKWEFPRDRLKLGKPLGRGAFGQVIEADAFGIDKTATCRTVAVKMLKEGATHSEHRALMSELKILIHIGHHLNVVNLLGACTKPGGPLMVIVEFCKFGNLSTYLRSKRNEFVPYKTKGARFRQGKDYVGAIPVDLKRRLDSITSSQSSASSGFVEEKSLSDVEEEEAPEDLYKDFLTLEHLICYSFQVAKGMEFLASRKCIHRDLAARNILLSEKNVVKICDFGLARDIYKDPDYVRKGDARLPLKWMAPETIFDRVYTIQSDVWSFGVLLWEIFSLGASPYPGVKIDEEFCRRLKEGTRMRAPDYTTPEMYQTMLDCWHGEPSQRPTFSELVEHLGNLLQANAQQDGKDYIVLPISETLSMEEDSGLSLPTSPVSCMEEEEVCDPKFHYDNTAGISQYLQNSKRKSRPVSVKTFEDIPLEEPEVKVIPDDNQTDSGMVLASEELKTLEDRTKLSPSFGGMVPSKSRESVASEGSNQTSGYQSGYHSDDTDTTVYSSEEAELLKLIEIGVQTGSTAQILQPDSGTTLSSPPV
B-Raf, sequence (P15056 whole entry, species assumed): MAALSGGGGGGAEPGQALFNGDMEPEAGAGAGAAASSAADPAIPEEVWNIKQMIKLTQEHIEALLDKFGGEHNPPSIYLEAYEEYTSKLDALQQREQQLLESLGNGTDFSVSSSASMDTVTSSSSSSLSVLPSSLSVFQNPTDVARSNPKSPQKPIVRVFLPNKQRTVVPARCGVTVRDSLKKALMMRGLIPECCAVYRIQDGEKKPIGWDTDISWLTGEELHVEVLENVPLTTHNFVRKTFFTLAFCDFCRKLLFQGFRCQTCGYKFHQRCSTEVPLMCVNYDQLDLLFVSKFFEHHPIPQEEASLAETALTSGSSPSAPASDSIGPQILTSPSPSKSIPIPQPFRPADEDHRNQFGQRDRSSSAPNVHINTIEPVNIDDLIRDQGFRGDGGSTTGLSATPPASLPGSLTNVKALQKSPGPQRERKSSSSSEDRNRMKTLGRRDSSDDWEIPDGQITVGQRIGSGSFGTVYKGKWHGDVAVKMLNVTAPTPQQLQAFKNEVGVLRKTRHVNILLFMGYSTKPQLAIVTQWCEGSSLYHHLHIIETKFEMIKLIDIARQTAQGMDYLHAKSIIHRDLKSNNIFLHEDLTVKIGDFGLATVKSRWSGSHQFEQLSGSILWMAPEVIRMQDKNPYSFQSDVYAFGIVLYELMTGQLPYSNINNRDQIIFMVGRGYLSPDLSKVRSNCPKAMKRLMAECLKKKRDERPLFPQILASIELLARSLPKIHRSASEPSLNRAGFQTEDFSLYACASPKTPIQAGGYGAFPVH
TIE-2, sequence (Q02763 23-1124): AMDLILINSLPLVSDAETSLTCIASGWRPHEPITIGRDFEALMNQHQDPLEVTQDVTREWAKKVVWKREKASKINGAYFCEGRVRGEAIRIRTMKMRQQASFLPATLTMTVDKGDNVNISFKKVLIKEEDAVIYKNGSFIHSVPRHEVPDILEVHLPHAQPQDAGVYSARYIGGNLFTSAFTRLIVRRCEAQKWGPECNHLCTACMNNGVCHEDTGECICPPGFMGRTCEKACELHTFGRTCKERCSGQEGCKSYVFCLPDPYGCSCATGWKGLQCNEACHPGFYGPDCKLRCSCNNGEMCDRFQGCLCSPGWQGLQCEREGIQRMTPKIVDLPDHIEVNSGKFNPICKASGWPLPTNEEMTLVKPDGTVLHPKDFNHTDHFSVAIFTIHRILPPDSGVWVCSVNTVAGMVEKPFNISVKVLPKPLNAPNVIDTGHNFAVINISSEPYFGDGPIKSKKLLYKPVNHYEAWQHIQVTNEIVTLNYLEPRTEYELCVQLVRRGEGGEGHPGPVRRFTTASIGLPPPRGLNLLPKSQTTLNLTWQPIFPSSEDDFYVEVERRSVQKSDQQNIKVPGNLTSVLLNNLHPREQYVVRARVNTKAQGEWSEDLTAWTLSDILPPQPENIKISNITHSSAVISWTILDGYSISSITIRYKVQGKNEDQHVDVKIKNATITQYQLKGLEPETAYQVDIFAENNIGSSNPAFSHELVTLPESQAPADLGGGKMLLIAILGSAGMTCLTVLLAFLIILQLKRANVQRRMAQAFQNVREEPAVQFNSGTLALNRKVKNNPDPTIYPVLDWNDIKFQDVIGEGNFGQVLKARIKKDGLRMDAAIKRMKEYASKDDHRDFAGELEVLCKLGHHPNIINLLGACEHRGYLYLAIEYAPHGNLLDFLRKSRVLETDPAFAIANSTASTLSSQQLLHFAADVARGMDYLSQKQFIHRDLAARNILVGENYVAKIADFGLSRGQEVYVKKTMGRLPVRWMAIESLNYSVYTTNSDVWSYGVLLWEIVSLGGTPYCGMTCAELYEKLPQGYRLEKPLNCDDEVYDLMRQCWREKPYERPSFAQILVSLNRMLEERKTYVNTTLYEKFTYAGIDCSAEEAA

For `O=C(Nc1ccc(-c2ccc3c(=O)[nH]cnc3c2)cc1)Nc1ccc(F)c(F)c1` [QDAU5, 1-(3,4-difluorophenyl)-3-(4-(4-oxo-3,4-dihydroquinazolin-7-yl)phenyl)urea], the IC50 (TIE-2) was 8.87 nM, the IC50 (B-Raf) was greater than 500 nM and the IC50 [1] was 58.7 µM. It also gave an IC50 [2] of 2120 nM, an IC50 [3] of 8.37 µM and an IC50 [4] of 4.99 µM. The IC50 [5] was greater than 100 µM, the IC50 [6] was greater than 100 µM and the “Direct competitive assay on VEGFR-2/CMC (change in K' of multi-target RTK inhibitors)” value (VEGFR-2 [7]; QDAU5 at increasing concentrations in the mobile phase) was “interacted with the same site of VEGFR-2”. The “Retention time on VEGFR-2/cell membrane stationary phase column” value (VEGFR-2 [7]; flow rate 0.6 mL/min, 37°C, 5 mM PBS pH 7.4, 270 nm) was 38 min and 38.0 min, the “VEGF-induced tyrosine phosphorylation of VEGFR-2” value (VEGFR-2 [8]; EA.hy926, 48 h, then 50 ng/mL VEGF for 10 min) was “dose-dependently decreased” and the “level of VEGFR-2” value (VEGFR-2 [8]; VEGF-stimulated EA.hy926, 48 h) was “moderately reduced”. It also gave a Final body weight (MCF-7 xenograft; 20 mg/kg daily) of 17.4 ± 1.0 g, a Tumor growth inhibition (MCF-7 xenograft; 20 mg/kg daily) of 7.2% and a Final tumor weight (MCF-7 xenograft; 20 mg/kg daily) of 0.787 ± 0.7 g. The Initial body weight (MCF-7 xenograft; 20 mg/kg) was 18.7 ± 0.8 g, the Final body weight (MCF-7 xenograft; 40 mg/kg daily) was 18.9 ± 1.2 g and the Tumor growth inhibition (MCF-7 xenograft; 40 mg/kg daily, 40 mg/kg) was 24%. The Final tumor weight (MCF-7 xenograft; 40 mg/kg daily) was 0.642 ± 0.8 g, the Initial body weight (MCF-7 xenograft; 40 mg/kg) was 18.4 ± 0.6 g and the Final body weight (MCF-7 xenograft; 80 mg/kg daily) was 16.1 ± 1.0 g. The Tumor growth inhibition (MCF-7 xenograft; 80 mg/kg daily, 80 mg/kg) was 47%, the Final tumor weight (MCF-7 xenograft; 80 mg/kg daily) was 0.449 ± 0.9 g and the Initial body weight (MCF-7 xenograft; 80 mg/kg) was 18.3 ± 0.7 g.
